Laboratory results as given in US20260274922A1, “SYNTHETIC ESTROGEN RECEPTOR (ER)-DERIVED PEPTIDE” (THE TEXAS A&M UNIVERSITY SYSTEM, priority 2023, published 2026).
Where no end group is shown, it is not given here. The star is where a group is joined. FITC = O=C1OC2(c3ccc(O)cc3Oc3cc(O)ccc32)c2ccc(NC(=S)*)cc21

Legend:
Type in all cases: in vivo, mouse
[1] = test system: db/db mice
Method: (§1) Obese mouse models and AF1 peptide treatment. For the high-fat diet (HFD)-induced obese mouse model, the 6-8-week-old male mice were fed with HFD (HFD; 60% kcal from fat, D12492; Research diet, New Brunswick, NJ) for 11 weeks. Then mice received 5 mg/kg body weight control or AF1 peptide through retro orbital injection (twice per week; 5 weeks). For genetic obesity mouse model, the 8-week-old db/db mice were administered with 5 mg/kg body weight control or AF1 peptide through retro orbital injection (twice per week; 5 weeks). Glucose tolerance and insulin tolerance tests were performed in the fourth and fifth week after treatment, respectively. Body composition was measured using EchoMRI™ one day before sacrificing the mice.
(§2) Glucose and insulin tolerance tests. For glucose tolerance tests, mice were fasted for 16 h and intraperitoneally (i.p.) injected with dextrose (1 g/kg body weight for mice fed with regular diet; 0.5 g/kg body weight for db/db mice or mice fed with HFD). For insulin tolerance tests, mice were fasted for 6 h and i.p. injected with insulin solution (1 U/kg body weight for male mice; 0.75 U/kg body weight for female mice). Blood glucose levels were measured using glucometer at indicated time points.
(§3) Hematoxylin and eosin staining and Oil Red O staining. Livers were embedded into paraffin after being fixed by PFA, and then cut into 5 μm sections. After deparaffinization and hydration, liver sections were stained with hematoxylin for 5 min. After differentiation by 1% acid alcohol, liver sections were stained with 1% eosin for 3 min. Finally, liver sections were dehydrated and mounted with mounting media. For Oil Red O staining, liver frozen sections were prepared and fixed in 10% neutral buffered formalin for 10 min after air dry for 1 h. Liver sections were stained in Oil Red O working solution for 15 min after a quick dip in 60% isopropanol. Liver sections were then stained with hematoxylin for 3 min and covered with aqueous mounting gel. Liver sections were observed using slide scanner (Leica).
(§4) Co-immunoprecipitation and Western blotting analysis. […] Protein bands were detected using a ChemiDoc image system.
(§5) Serum lipid profile analysis. Serum triglyceride, AST, ALT, cholesterol, LDL, HDL, NEFA, and ALP were measured using DxC 700 AU Chemistry Analyzer (Beckman Coulter).
Serum insulin and liver triglyceride analysis. Serum insulin and triglyceride levels were measured by using mouse insulin ELISA kit (Mercodia) and triglyceride assay kit (Abcam), respectively. […]

[2] = test system: diet-induced obesity (DIO) mice
Method: as §1, §2
RNA extraction and quantitative real-time PCR. Total RNA was extracted from livers or primary hepatocytes using TRIzol (Invitrogen, Thermo Fisher Scientific), purified with chloroform, 80% ethanol, isopropanol, and RNA column, eluted with RNase free water, and reverse transcribed into cDNA using iScript Reverse Transcription Supermix (Bio-Rad, Hercules, CA). Quantitative real-time PCR (qPCR) was conducted using SsoAdvanced Universal SYBR Green Supermix (Bio-Rad, Hercules, CA) on CFX384 real-time PCR detection system (Bio-Rad, Hercules, CA). Q-PCR started with 95° C. incubation for 3 min, followed by 39 cycles of 95° C. for 5 s and 60° C. for 30 s. The threshold cycle (CT) values were obtained and used to calculate the relative transcriptional level of target genes by 2^−ΔΔCT method with Cyclophilin (Cyp) as an internal control. […].
as §3, §4, §5
Serum insulin and liver triglyceride analysis. Serum insulin and triglyceride levels were measured by using mouse insulin ELISA kit (Mercodia) and triglyceride assay kit (Abcam), respectively.

[3] = test system: 12-month-old female mice; experiment: AF1 peptide treatment of aging female mice (12-month-old); conditions: 5 mg/kg i.v. twice per week, 5 weeks
Method: Postmenopause in old women is highly associated with increased risk of diabetes.
as §2

[4] = db/db mice, 5 mg/kg twice per week, 5 weeks
[5] = db/db mice, 5 mg/kg twice per week, 5 weeks, vs CNTR
[6] = DIO mice, 5 mg/kg twice per week, 5 weeks
[7] = DIO mice, 5 mg/kg twice per week, 5 weeks, vs CNTR

Q: “YGRKKRRQRRRTKASGMALLHEPLNRPQLKIPLERDSSKPAVYNY ({FITC}-YGRKKRRQRRRTKASGMALLHEPLNRPQLKIPLERDSSKPAVYNY) [AF1 peptide]” was tested. Which liver triglycerides ([1]; db/db mice) did it give?
A: decreasing trend

Q: What about the “serum HDL” value ([1]; db/db mice) of the same sequence?
A: significantly reduced

Q: And the “serum LDL” value ([1]; db/db mice)?
A: significantly reduced

Q: And the “serum NEFA” value ([1]; db/db mice)?
A: significantly reduced

Q: And the serum cholesterol ([1]; db/db mice)?
A: significantly reduced

Q: What about the serum insulin ([1]; db/db mice) of the same sequence?
A: limited effect

Q: And the serum triglycerides ([1]; db/db mice)?
A: decreasing trend

Q: And the “overnight fasting blood glucose” value [1, 4]?
A: 103.8 ± 3.6 mg/dL

Q: What about the “random feeding blood glucose” value [1, 4] of the same sequence?
A: 360.7 ± 25.1 mg/dL

Q: What about the “decrease in overnight fasting blood glucose” value [1, 5] of the same sequence?
A: 35%

Q: What about the “reduction in random feeding blood glucose” value [1, 5] of the same sequence?
A: 22%

Q: What about the “liver steatosis (steatosis structure and liver fat amount)” value ([1]; db/db mice, H&E and Oil Red O staining) of the same sequence?
A: significantly decreased

Q: What about the “blood glucose upon glucose or insulin challenge” value ([1]; db/db mice, glucose and insulin tolerance tests) of the same sequence?
A: significantly decreased

Q: What about the “decrease in pIRS1-S302” value ([1]; db/db mice, liver) of the same sequence?
A: 61%

Q: And the “increase in IRS1” value ([1]; db/db mice, liver)?
A: 114%

Q: And the “increase in pAKT-S473” value ([1]; db/db mice, liver)?
A: 98%

Q: What about the “increase in pAKT-T308” value ([1]; db/db mice, liver) of the same sequence?
A: 101%

Q: And the “pAKT-S473 and pAKT-T308” value ([1]; db/db mice, skeletal muscle and epididymal fat tissues)?
A: significantly increased

Q: And the “serum ALP” value ([1]; mouse, in vivo)?
A: limited effect

Q: And the “serum ALT” value ([1]; mouse, in vivo)?
A: limited effect

Q: What about the “serum AST” value ([1]; mouse, in vivo) of the same sequence?
A: significantly reduced

Q: And the “decrease in serum NEFA” value ([2]; DIO mice)?
A: 21%

Q: And the “decrease in serum cholesterol” value ([2]; DIO mice)?
A: 8%

Q: And the “decrease in serum triglyceride” value ([2]; DIO mice)?
A: 21%

Q: What about the glucose tolerance ([2]; DIO mice) of the same sequence?
A: significantly improved

Q: And the insulin sensitivity ([2]; DIO mice)?
A: significantly improved

Q: What about the “serum HDL” value ([2]; DIO mice) of the same sequence?
A: decreases

Q: What about the “serum LDL” value ([2]; DIO mice) of the same sequence?
A: decreases

Q: What about the serum insulin ([2]; DIO mice) of the same sequence?
A: not changed

Q: What about the overnight fasting blood glucose [2, 6] of the same sequence?
A: 85.4 ± 0.2 mg/dL

Q: What about the “random feeding blood glucose” value [2, 6] of the same sequence?
A: 154.2 ± 4.7 mg/dL

Q: What about the “decrease in overnight fasting blood glucose” value [2, 7] of the same sequence?
A: 20%

Q: What about the “decrease in random feeding blood glucose” value [2, 7] of the same sequence?
A: 12%

Q: What about the liver fat accumulation ([2]; DIO mice, H&E staining) of the same sequence?
A: ameliorated

Q: What about the “decrease in pIRS1-302” value ([2]; DIO mice, liver) of the same sequence?
A: 32%

Q: What about the “increase in IRS1” value ([2]; DIO mice, liver) of the same sequence?
A: 49%

Q: And the “increase in pAKT-308” value ([2]; DIO mice, liver)?
A: 51%

Q: And the “increase in pAKT-S473” value ([2]; DIO mice, liver)?
A: 100%

Q: And the “mRNA expression of FAO gene (Hadha)” value ([2]; DIO mice, liver, q-PCR)?
A: increased

Q: What about the “mRNA expression of gluconeogenic gene (Pck1)” value ([2]; DIO mice, liver, q-PCR) of the same sequence?
A: significantly decreased

Q: What about the “mRNA expression of inflammatory cytokine (Il6)” value ([2]; DIO mice, liver, q-PCR) of the same sequence?
A: significantly decreased

Q: What about the “mRNA expression of lipogenic gene (Fasn)” value ([2]; DIO mice, liver, q-PCR) of the same sequence?
A: significantly decreased

Q: What about the “serum ALP” value ([2]; mouse, in vivo) of the same sequence?
A: not changed

Q: And the “serum ALT” value ([2]; mouse, in vivo)?
A: not changed

Q: What about the “serum AST” value ([2]; mouse, in vivo) of the same sequence?
A: not changed

Q: And the glucose tolerance [3]?
A: nonsignificant increase

Q: And the insulin sensitivity [3]?
A: modest improvement
